According to patent publication US20250197425A1, “2,6,9-TRISUBSTITUTED PURINES” (ASTRAZENECA AB, priority 2022, published 2025):
pIC50: −log10 of the molar value. In brackets after ≈: the same amount, converted by molar mass.

What was measured:
OVCAR3 cells = test: Cellular proliferation EdU assay, OVCAR3; type: cell-based, human; conditions: Homo sapiens, OVCAR-3, 48 h, EdU assay, two days; read-out: OVCAR3 IC50
Procedure: (§1) Compounds were tested to assess inhibition of cellular proliferation in the breast cancer cell line MCF-7 and the CCNE1-amplified ovarian cell line OVCAR3.
(§2) MCF-7 and OVCAR3 cells in RPMI supplemented with 10% Fetal bovine serum were seeded into 384-well plates (Greiner, Kremsmunster, Austria; 781091), 30 μL/well, using a WellMate. The MCF7 and OVCAR3 cells were seeded at 800 and 1200 cells/well, respectively. Test compounds were added to the wells using an Echo 555 liquid handler and the plates were placed in incubator maintained at 37° C. and 5% CO2 and incubated for two days. On Day 2, an EdU assay was performed following the manufacturer's protocol (Thermo Fisher, C10351). The cells were read on an Acumen eX3 instrument. The IC50 values of test compounds were determined in Genedata by assessing the ratio of signal intensity at 488 nm to the area of signal at 405 nm.

CDK1:CCNB1 = CDK1:CCNB1 (Homo sapiens (Human), UniProt P06493); test: NanoBRET assay in MCF-7 cells, CDK1; type: cell-based; conditions: NanoBRET, transfected MCF-7 cells, 2 hours; n = 1 or average; read-out: CDK1 IC50
Chain of CDK1:CCNB1 (P06493 whole entry): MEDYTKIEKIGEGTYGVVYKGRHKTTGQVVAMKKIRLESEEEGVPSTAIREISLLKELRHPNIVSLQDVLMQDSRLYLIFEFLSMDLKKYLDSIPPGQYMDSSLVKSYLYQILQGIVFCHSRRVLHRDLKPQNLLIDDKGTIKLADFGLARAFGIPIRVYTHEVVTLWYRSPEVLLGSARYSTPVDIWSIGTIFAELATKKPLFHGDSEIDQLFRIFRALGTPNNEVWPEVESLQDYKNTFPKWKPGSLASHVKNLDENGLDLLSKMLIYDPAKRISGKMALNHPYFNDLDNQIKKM
Chain of CDK1:CCNB1 (P14635 whole entry partner): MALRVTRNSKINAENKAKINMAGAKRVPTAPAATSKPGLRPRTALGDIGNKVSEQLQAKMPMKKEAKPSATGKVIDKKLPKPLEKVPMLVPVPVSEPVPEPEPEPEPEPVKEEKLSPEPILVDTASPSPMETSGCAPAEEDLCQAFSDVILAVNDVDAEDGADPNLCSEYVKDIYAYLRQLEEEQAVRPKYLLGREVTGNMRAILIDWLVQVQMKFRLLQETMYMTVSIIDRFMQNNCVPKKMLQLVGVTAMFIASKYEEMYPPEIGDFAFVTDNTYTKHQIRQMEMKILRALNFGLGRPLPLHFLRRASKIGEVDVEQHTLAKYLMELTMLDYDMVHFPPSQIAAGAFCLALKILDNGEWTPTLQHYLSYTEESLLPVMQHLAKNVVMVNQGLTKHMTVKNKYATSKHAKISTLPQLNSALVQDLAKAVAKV
Procedure: (§3) Compounds were tested in breast cancer cell line MCF-7 to assess inhibition of CDK1, CDK2, and CDK4 activity. MCF-7 cells transiently transfected with CDK1:CCNB1, CDK2:CCNE1, or CDK4:CCND1 were harvested at a density of 1E5 cells/mL in complete media, seeded 20 μL/well into 384-well Greiner 784080 plates using a Multidrop Combi, and incubated overnight at 37° C. and 5% CO2. The next day media were evacuated from the wells using the Bluewasher centrifugal plate washer (Bluecatbio) and 10 μL/well phenol red free OptiMEM was then added using a Multidrop Combi. […] Immediately after compound addition, a Tecan HP300 dispensor was used to dispense the relevant NanoBRET™ tracer to the CDK1 wells (12.5 nl, 400 μM, NanoBRET™ TE Tracer K-9), the CDK2 wells (12.5 nl, 200 μM, NanoBRET™ TE Tracer K-9), and the CDK4 wells (8 nl, 100 μM, NanoBRET™ TE Tracer K-7) and the plates were incubated for 2 hours at 37° C. and 5% CO2. The plates were allowed to cool for 10 minutes at room temperature and 5 μL/well of TE Nano-Glo®Substrate/Inhibitor at 2.4 μM and 1:500 respectively (N2162 Promega) was added. The plates were incubated in subdued lighting for 10 minutes and then read on a Pherastar FS plate reader (BMG Technologies) using a NanoBRET™ filter module (460±80 nm/610 nm-LP). The ratio values were normalized to controls and the IC50 values of test compounds determined using Genedata Screener software.

MCF-7 cells = test: Cellular proliferation EdU assay, MCF-7; type: cell-based; conditions: Homo sapiens, MCF7, 48 h, EdU assay, two days; read-out: MCF-7 IC50
Procedure: as §1, §2

[1] = CLint assessment in human liver microsomes (HLM); type: in vitro ADME; conditions: 1 μM
Procedure: After a preincubation with NADPH for 8 minutes, reactions were initiated through the addition of the test compound (final volume 250 μl) and incubated at 37° C. in a water bath for 30 minutes. […] Samples were shaken at 800 rpm for 2 minutes and centrifuged at 4000 rpm for 20 minutes at 4° C. to pellet precipitated protein. The supernatant fraction was diluted 1:5 with deionized water, shaken at 1000 rpm for 2 minutes, and further diluted 1:1 with deionized water. Samples were analyzed by LC-MS/MS. The t1/2 and the CLint of the compounds incubated in the LM, HLM, and HμREL assays as described above were calculated according to the following equations: […] where V (μl/×10^6 cells or mg protein) is the incubation volume (μl) divided by the number of cells (×10^6) or microsomal protein content (mg) in the incubation.

[2] = Aqueous thermodynamic solubility, shake-flask; type: physicochemical; conditions: aqueous phosphate buffer, 25 °C, pH 7.4, aqueous buffer, thermodynamic from solid, phosphate buffer 0.1 M, pH 7.4, 24 hours
Procedure: The DMSO was evaporated and the dried compounds were equilibrated in glass vials in aqueous phosphate buffer (0.1 M, pH 7.4) for 24 hours at 25° C. under constant stirring. The portion with the dissolved compound was then separated from the remainder through a double centrifugation with a tip wash in between to ensure that no residues of the dried compound were interfering. The solutions were diluted with purified water before quantification using UPLC/MS/MS.

[3] = tested on: POLR2A Ser2 phosphorylation (CDK9); test: POLR2A Ser2 phosphorylation imaging assay in MCF-7 cells; type: cell-based; conditions: Homo sapiens, MCF7, 2 h, MCF-7 cells, 2 hours; read-out: POLR2A Ser2 phosphorylation IC50
Procedure: Compounds were tested to assess their effect on CDK9 activity in a cellular context. […] During the cell cycle, CDK9 is a component of a multiprotein complex that phosphorylates POLR2A Ser2 which results in transcription elongation.
[…] were fixed by addition of 40 μL/well of 8% paraformaldehyde and incubated for 10 minutes at room temperature. The plates were washed three times with 50 μL/well PBS using a Biotek EL406 plate washer and then permeabilized for 10 minutes at room temperature in 0.3% Triton X100 in PBS. After washing as before, the plates were blocked using 30 μL/well of 2% BSA (w/v) in PBS-T for over 30 minutes at room temperature. […] After washing in PBS as before, leaving each well in 40 μL of PBS, the plates were sealed and imaged on a Cell Insight imaging system (Thermo) with a 10× objective and 2 fields of view per well. POLR2A Ser2levels were normalized to controls and the IC50 values of test compounds determined using Genedata Screener software.

[4] = tested on: NPM phosphorylation (Thr199, CDK2-cyclin E complex); test: NPM phosphorylation imaging assay in MCF-7 cells; type: cell-based; conditions: Homo sapiens, 4N DNA cells
Procedure: Compounds were tested to assess the effects of CDK2 inhibition in a cellular context. […] During the cell cycle, the CDK2-cyclin E complex phosphorylates NPM at Thr199 which is a prerequisite step for initiation of centrosome duplication.
The cells were fixed by addition of 40 μL/well of 8% paraformaldehyde and incubated at room temperature for 10 minutes. The plates were washed three times with 50 μL/well PBS using a Biotek EL406 plate washer and then permeabilized for 10 minutes at room temperature in 0.3% Triton X100 in PBS. After washing as before, the plates were blocked using 30 μL/well of 2% BSA (w/v) in PBS-T for at least 30 minutes at room temperature. […] Cells containing 4N DNA were selected using the Hoechst staining. Phospho-NPM levels were normalized to controls and the IC50 values of test compounds determined using Genedata Screener software.

CDK4:CCND1 = CDK4:CCND1 (Homo sapiens (Human), UniProt P11802); test: NanoBRET assay in MCF-7 cells, CDK4; type: cell-based; conditions: NanoBRET, transfected MCF-7 cells, 2 hours; n = 1 or average; read-out: CDK4 IC50
Chain of CDK4:CCND1 (P11802 whole entry): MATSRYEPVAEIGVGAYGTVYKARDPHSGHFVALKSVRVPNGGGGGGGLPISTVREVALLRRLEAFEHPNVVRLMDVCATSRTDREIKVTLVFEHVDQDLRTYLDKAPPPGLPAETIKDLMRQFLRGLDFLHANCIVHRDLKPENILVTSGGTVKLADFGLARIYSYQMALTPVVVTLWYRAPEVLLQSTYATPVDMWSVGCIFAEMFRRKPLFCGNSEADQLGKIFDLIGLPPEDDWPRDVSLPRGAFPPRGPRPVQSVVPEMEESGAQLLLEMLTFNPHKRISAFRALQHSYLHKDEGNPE
Chain of CDK4:CCND1 (P24385 whole entry partner): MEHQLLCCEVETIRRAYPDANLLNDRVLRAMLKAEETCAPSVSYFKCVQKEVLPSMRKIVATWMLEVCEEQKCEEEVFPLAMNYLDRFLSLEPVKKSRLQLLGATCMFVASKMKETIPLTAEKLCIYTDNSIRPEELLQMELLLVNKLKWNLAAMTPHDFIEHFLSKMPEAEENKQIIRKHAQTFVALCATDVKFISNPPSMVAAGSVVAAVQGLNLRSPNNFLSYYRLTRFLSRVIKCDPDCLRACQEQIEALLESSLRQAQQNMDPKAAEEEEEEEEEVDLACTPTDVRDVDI
Procedure: as §3

CDK2:CCNE1 = CDK2:CCNE1 (Homo sapiens (Human), UniProt P24941); test: NanoBRET assay in MCF-7 cells, CDK2; type: cell-based; conditions: transfected MCF-7 cells, 2 hours, n = 1 or average
Procedure: as §3, with “MCF-7 cells transiently transfected with CDK1:CCNB1, CDK2:CCNE1, or CDK4:CCND1 were harvested at a density of 1E5 cells/mL in complete media, seeded 20 μL/well into 384-well Greiner 784080 plates using a Multidrop Combi, and incubated overnight at 37° C. and 5% CO2.” left out, “The plates were allowed to cool for 10 minutes at room temperature and 5 μL/well of TE Nano-Glo®Substrate/Inhibitor at 2.4 μM and 1:500 respectively (N2162 Promega) was added.” left out

Row | Structure (SMILES) | pIC50 (CDK1:CCNB1) | HLM CLint [1] [µL/min/mg] | solubility at 24 h [2] [µM] | pIC50 (CDK4:CCND1) | pIC50 (CDK2:CCNE1) | pIC50 ([4]; MCF7, 2 h) | pIC50 (OVCAR3 cells) | pIC50 (MCF-7 cells) | pIC50 [3] | pIC50 ([4]; MCF7, 2 hours)
1 | CCn1cnc2c(N[C@H]3CCN(S(=O)(=O)NC)C3)nc(N[C@@H](CC(F)(F)F)[C@@H](C)O)nc21 (relative stereo) [Example 21, (S)-3-((9-ethyl-2-(((3S*,4R*)-1,1,1-trifluoro-4-hydroxypentan-3-yl)-amino)-9H-purin-6-yl)amino)-N-methylpyrrolidine-1-sulfonamide] | 5.42 | 34.1 | 606 (≈ 291 µg/mL) | < 4.53 | 7.31 | – | 6.24 | 5.84 | < 4.52 | 6.49
2 | CC[C@H](Nc1nc(N[C@@H]2CN(S(=O)(=O)NC)C[C@H]2F)c2ncn(CC)c2n1)[C@@H](C)O (relative stereo) [Example 52, (3R*,4R*)-3-((9-ethyl-2-(((2R,3S)-2-hydroxypentan-3-yl)amino)-9H-purin-6-yl)amino)-4-fluoro-N-methylpyrrolidine-1-sulfonamide] | 5.92 | 21.1 | 300 (≈ 133 µg/mL) | 4.77 | 7.68 | 6.82 | 6.60 | 5.99 | 4.95 | –
3 | CC(C)[C@H](CO)Nc1nc(N[C@@H]2CN(S(C)(=O)=O)C[C@H]2F)c2ncn(C(C)C)c2n1 [Example 33, (R)-2-((6-(((3R,4R)-4-fluoro-1-(methylsulfonyl)pyrrolidin-3-yl)amino)-9-isopropyl-9H-purin-2-yl)amino)-3-methylbutan-1-ol] | 5.24 | – | – | 5.09 | 7.59 | – | 6.06 | 5.53 | < 4.52 | 6.12
4 | CC[C@H](CO)Nc1nc(N[C@H]2CCN(S(C)(=O)=O)C2)c2ncn(CC)c2n1 [Example 38, (R)-2-((9-ethyl-6-(((S)-1-(methylsulfonyl)pyrrolidin-3-yl)amino)-9H-purin-2-yl)amino)butan-1-ol] | 5.98 | – | – | 5.22 | 7.68 | – | 6.11 | 5.64 | < 4.52 | 6.41
5 | CC[C@H](Nc1nc(N[C@H]2CCN(S(=O)(=O)NC)C2)c2ncn(C(F)F)c2n1)[C@@H](C)O [Example 55, (S)-3-((9-(difluoromethyl)-2-(((2R,3S)-2-hydroxypentan-3-yl)amino)-9H-purin-6-yl)amino)-N-methylpyrrolidine-1-sulfonamide] | – | – | > 1000 | – | – | – | 6.83 | 6.29 | 4.84 | 6.85

Further lines, with some results ahead:

Row | pIC50 (CDK1:CCNB1) | HLM CLint [1] [µL/min/mg] | solubility at 24 h [2] [µM] | pIC50 (CDK4:CCND1) | pIC50 (CDK2:CCNE1) | pIC50 ([4]; MCF7, 2 h) | Structure (SMILES) | pIC50 (OVCAR3 cells) | pIC50 (MCF-7 cells) | pIC50 [3] | pIC50 ([4]; MCF7, 2 hours)
6 | 6.19 | 15.2 | 101 (≈ 44.7 µg/mL) | 5.09 | 7.41 | 6.36 | CCNS(=O)(=O)N1C[C@@H](F)[C@H](Nc2nc(N[C@@H](CO)C3CC3)nc3c2ncn3C)C1 (relative stereo) [Example 26, (3R*,4R*)-3-((2-(((R)-1-cyclopropyl-2-hydroxyethyl)amino)-9-methyl-9H-purin-6-yl)amino)-N-ethyl-4-fluoropyrrolidine-1-sulfonamide] | 6.30 | 6.02 | 4.94 | –
7 | 5.82 | 39.8 | > 1000 | 4.66 | 7.16 | 6.52 | CC[C@H](Nc1nc(N[C@@H]2CN(S(=O)(=O)c3ncc[nH]3)C[C@H]2F)c2ncn(C)c2n1)[C@@H](C)O (relative stereo) [Example 56, (2R,3S)-3-((6-(((3R*,4R*)-1-((1H-imidazol-2-yl)sulfonyl)-4-fluoropyrrolidin-3-yl)amino)-9-methyl-9H-purin-2-yl)amino)pentan-2-ol] | 6.28 | 5.93 | 4.62 | –
8 | 6.73 | 33.5 | 884 (≈ 480 µg/mL) | 5.82 | 7.96 | 7.26 | C[C@H](Nc1nc(N[C@@H]2CN(S(=O)(=O)c3ncc[nH]3)C[C@H]2F)c2ncn(C(F)F)c2n1)[C@@H](O)C(F)(F)F (relative stereo) [Example 57, (2R,3S)-3-((6-(((3R*,4R*)-1-((1H-imidazol-2-yl)sulfonyl)-4-fluoropyrrolidin-3-yl)amino)-9-(difluoromethyl)-9H-purin-2-yl)amino)-1,1,1-trifluorobutan-2-ol] | 6.81 | 6.70 | 5.36 | –
